# Assay results: article PMC5218480 (PLoS ONE, 2017)
# Test system: MV-4-11 cells
# Assay: Gene expression microarray analysis (Affymetrix PrimeView) and GSEA
# Assay type: cell-based, human
# Set-up: RFU PODN (11730768_x_at) / Fold change /veh PODN (11730768_x_at) / RFU LINC00158 (11744669_a_at) / Fold change /veh LINC00158 (11744669_a_at) / RFU DUSP10 (11751237_a_at) / Fold change /veh DUSP10 (11751237_a_at) / RFU ID3 (11757404_x_at) / Fold change /veh ID3 (11757404_x_at) / RFU PLEKHG5 (11737974_s_at) / Fold change /veh PLEKHG5 (11737974_s_at) / RFU LRRC4B (11730491_at) / Fold change /veh LRRC4B (11730491_at) / RFU GIMAP4 (11747438_a_at) / Fold change /veh GIMAP4 (11747438_a_at) / RFU KRT8 (11758183_x_at) / Fold change /veh KRT8 (11758183_x_at) / RFU CNN1 (11734310_a_at) / Fold change /veh CNN1 (11734310_a_at) / RFU VPS37D (11726825_at) / Fold change /veh VPS37D (11726825_at) / RFU C10orf10 (11716522_x_at) / Fold change /veh C10orf10 (11716522_x_at) / RFU KIR2DL2 /// KIR2DL4 /// KIR2DL5A /// KIR2DL5B /// KIR2DS1 /// KIR2DS2 /// KIR2DS3 /// KIR2DS4 /// KIR3DL3 /// KIR3DL3 /// KIR3DS1 (11738374_at) / Fold change /veh KIR2DL2 /// KIR2DL4 /// KIR2DL5A /// KIR2DL5B /// KIR2DS1 /// KIR2DS2 /// KIR2DS3 /// KIR2DS4 /// KIR3DL3 /// KIR3DL3 /// KIR3DS1 (11738374_at) / RFU C1QL1 (11718748_at) / Fold change /veh C1QL1 (11718748_at) / RFU TMPRSS4 (11747572_a_at) / Fold change /veh TMPRSS4 (11747572_a_at) / RFU HAMP (11756126_x_at) / Fold change /veh HAMP (11756126_x_at) / RFU RNFT2 (11725882_a_at) / Fold change /veh RNFT2 (11725882_a_at) / RFU NR4A2 (11747474_a_at) / Fold change /veh NR4A2 (11747474_a_at) / RFU ABCC12 (11746883_a_at) / Fold change /veh ABCC12 (11746883_a_at) / RFU TMEM136 (11760407_x_at) / Fold change /veh TMEM136 (11760407_x_at) / RFU CLDN22 /// WWC2 (11732394_at) / Fold change /veh CLDN22 /// WWC2 (11732394_at) / RFU HLA-DPB1 (11760878_x_at) / Fold change /veh HLA-DPB1 (11760878_x_at) / RFU SPINT1 (11716480_a_at) / Fold change /veh SPINT1 (11716480_a_at) / RFU GAP43 (11754022_s_at) / Fold change /veh GAP43 (11754022_s_at) / RFU A4GNT (11735810_at) / Fold change /veh A4GNT (11735810_at) / RFU PRB3 (11715151_x_at) / Fold change /veh PRB3 (11715151_x_at) / RFU TUBB4B (11761932_at) / Fold change /veh TUBB4B (11761932_at) / RFU CAPN14 (11732068_a_at) / Fold change /veh CAPN14 (11732068_a_at) / RFU TMCC2 (11721928_a_at) / Fold change /veh TMCC2 (11721928_a_at) / RFU IRGQ (11745062_a_at) / Fold change /veh IRGQ (11745062_a_at) / RFU FAM174B (11720279_a_at) / Fold change /veh FAM174B (11720279_a_at) / RFU TMPRSS4 (11748680_a_at) / Fold change /veh TMPRSS4 (11748680_a_at) / RFU FAM212B (11763350_a_at) / Fold change /veh FAM212B (11763350_a_at) / RFU PLEKHG5 (11743358_a_at) / Fold change /veh PLEKHG5 (11743358_a_at) / RFU ZSCAN30 (11745921_a_at) / Fold change /veh ZSCAN30 (11745921_a_at) / RFU CMKLR1 (11741424_a_at) / Fold change /veh CMKLR1 (11741424_a_at) / RFU LOC101060620 /// MAPK8IP1 (11723275_at) / Fold change /veh LOC101060620 /// MAPK8IP1 (11723275_at) / RFU SPTSSB (11747773_x_at) / Fold change /veh SPTSSB (11747773_x_at) / RFU PRSS12 (11739890_at) / Fold change /veh PRSS12 (11739890_at) / RFU BIN1 (11741810_x_at) / Fold change /veh BIN1 (11741810_x_at) / RFU WNT11 (11732464_a_at) / Fold change /veh WNT11 (11732464_a_at) / RFU C10orf10 (11716521_a_at) / Fold change /veh C10orf10 (11716521_a_at) / RFU C5orf56 (11738089_at) / Fold change /veh C5orf56 (11738089_at) / RFU CYB561 (11721691_x_at) / Fold change /veh CYB561 (11721691_x_at) / RFU ANKRD19P (11752326_a_at) / Fold change /veh ANKRD19P (11752326_a_at) / RFU OR2T12 /// OR2T33 /// OR2T8 (11738714_s_at) / Fold change /veh OR2T12 /// OR2T33 /// OR2T8 (11738714_s_at) / RFU VCAN (11748164_a_at) / Fold change /veh VCAN (11748164_a_at) / RFU JSRP1 (11732532_at) / Fold change /veh JSRP1 (11732532_at) / RFU KRTAP10-11 (11738290_x_at) / Fold change /veh KRTAP10-11 (11738290_x_at) / RFU MYO3A (11730013_a_at) / Fold change /veh MYO3A (11730013_a_at) / RFU EBF3 (11725865_a_at) / Fold change /veh EBF3 (11725865_a_at) / RFU CAMK2N1 (11719241_x_at) / Fold change /veh CAMK2N1 (11719241_x_at) / RFU C5orf56 (11738088_a_at) / Fold change /veh C5orf56 (11738088_a_at) / RFU OLFML3 (11715873_a_at) / Fold change /veh OLFML3 (11715873_a_at) / RFU LOC100653217 /// NTM (11731650_a_at) / Fold change /veh LOC100653217 /// NTM (11731650_a_at) / RFU MAPK11 (11762145_a_at) / Fold change /veh MAPK11 (11762145_a_at) / RFU FIZ1 (11724087_x_at) / Fold change /veh FIZ1 (11724087_x_at) / RFU OASL (11726364_x_at) / Fold change /veh OASL (11726364_x_at) / RFU SOX15 (11748057_x_at) / Fold change /veh SOX15 (11748057_x_at) / RFU CD79A (11719716_a_at) / Fold change /veh CD79A (11719716_a_at) / RFU HIST1H1D (11736915_at) / Fold change /veh HIST1H1D (11736915_at) / RFU CASKIN2 (11723855_a_at) / Fold change /veh CASKIN2 (11723855_a_at) / RFU LOC730098 (11760151_x_at) / Fold change /veh LOC730098 (11760151_x_at) / RFU OR4N2 (11742367_at) / Fold change /veh OR4N2 (11742367_at) / RFU PRRT2 (11749266_a_at) / Fold change /veh PRRT2 (11749266_a_at) / RFU SNX32 (11753110_a_at) / Fold change /veh SNX32 (11753110_a_at) / RFU CDHR5 (11726645_a_at) / Fold change /veh CDHR5 (11726645_a_at) / RFU RCAN1 (11760418_a_at) / Fold change /veh RCAN1 (11760418_a_at) / RFU FAM167A (11723789_a_at) / Fold change /veh FAM167A (11723789_a_at) / RFU FAM26E (11764081_at) / Fold change /veh FAM26E (11764081_at) / RFU ISYNA1 (11749810_s_at) / Fold change /veh ISYNA1 (11749810_s_at) / RFU ACY1 (11761880_at) / Fold change /veh ACY1 (11761880_at) / RFU 11764098_at / Fold change /veh 11764098_at / RFU SAMD14 (11745864_x_at) / Fold change /veh SAMD14 (11745864_x_at) / RFU NPB (11741838_a_at) / Fold change /veh NPB (11741838_a_at) / RFU TMPRSS6 (11731388_a_at) / Fold change /veh TMPRSS6 (11731388_a_at) / RFU KRTAP10-2 (11738614_at) / Fold change /veh KRTAP10-2 (11738614_at) / RFU ARHGAP8 /// PRR5-ARHGAP8 (11727945_x_at) / Fold change /veh ARHGAP8 /// PRR5-ARHGAP8 (11727945_x_at) / RFU KRTAP5-7 /// NADSYN1 (11734609_at) / Fold change /veh KRTAP5-7 /// NADSYN1 (11734609_at) / RFU RASL12 (11751679_a_at) / Fold change /veh RASL12 (11751679_a_at) / RFU CDKN2B (11736163_a_at) / Fold change /veh CDKN2B (11736163_a_at) / RFU PRF1 (11729649_at) / Fold change /veh PRF1 (11729649_at) / RFU, ZNF638 /// ZNF638-IT1 / Fold change vs veh, ZNF638 /// ZNF638-IT1 / RFU, PANK3 / Fold change vs veh, PANK3 / RFU, SH3YL1 / Fold change vs veh, SH3YL1 / RFU, ZEB2 / Fold change vs veh, ZEB2 / RFU, NRIP1 / Fold change vs veh, NRIP1 / RFU, PTTG1IP / Fold change vs veh, PTTG1IP / RFU, CAPN2 / Fold change vs veh, CAPN2 / RFU, MED14 / Fold change vs veh, MED14 / RFU, SNORA58 / Fold change vs veh, SNORA58 / RFU, C1orf63 / Fold change vs veh, C1orf63 / RFU, LRRFIP1 / Fold change vs veh, LRRFIP1 / RFU, NDUFAF7 / Fold change vs veh, NDUFAF7 / RFU, SLC12A2 / Fold change vs veh, SLC12A2 / RFU, IBTK / Fold change vs veh, IBTK / RFU, ESF1 / Fold change vs veh, ESF1 / Fold change vs veh, TMEM50B / RFU, TAOK1 / Fold change vs veh, TAOK1 / RFU, ACBD3 / Fold change vs veh, ACBD3 / RFU, TMA16 / Fold change vs veh, TMA16 / RFU, RWDD3 / Fold change vs veh, RWDD3 / RFU, BCAT1 / Fold change vs veh, BCAT1 / RFU, EDEM3 / Fold change vs veh, EDEM3 / RFU, TMEM33 / Fold change vs veh, TMEM33 / RFU, WDR75 / Fold change vs veh, WDR75 / RFU, AHCTF1 / Fold change vs veh, AHCTF1 / RFU, TFRC / Fold change vs veh, TFRC / RFU, ZDHHC17 / Fold change vs veh, ZDHHC17 / RFU, NOM1 / Fold change vs veh, NOM1 / RFU, ARL8B / Fold change vs veh, ARL8B / RFU, ZBTB11 / Fold change vs veh, ZBTB11 / RFU, TAMM41 / Fold change vs veh, TAMM41 / RFU, KIAA1704 /// LOC100996395 / Fold change vs veh, KIAA1704 /// LOC100996395 / RFU, ING1 / Fold change vs veh, ING1 / RFU, TRMT61B / Fold change vs veh, TRMT61B / RFU, FUBP3 / Fold change vs veh, FUBP3 / RFU, TP53 / Fold change vs veh, TP53 / RFU, TNKS2 / Fold change vs veh, TNKS2 / RFU, ZFP14 / Fold change vs veh, ZFP14 / RFU, ACTR2 / Fold change vs veh, ACTR2 / RFU, PPP3R1 / Fold change vs veh, PPP3R1 / RFU, PIK3R1 / Fold change vs veh, PIK3R1 / RFU, HNRNPA1 / Fold change vs veh, HNRNPA1 / RFU, RNF170 / Fold change vs veh, RNF170 / RFU, ZNF28 / Fold change vs veh, ZNF28 / RFU, RNGTT / Fold change vs veh, RNGTT / RFU, OGT / Fold change vs veh, OGT / RFU, BRD1 / Fold change vs veh, BRD1 / RFU, MARS / Fold change vs veh, MARS / RFU, ZNF655 / Fold change vs veh, ZNF655 / RFU, FAHD1 / Fold change vs veh, FAHD1 / RFU, BDP1 / Fold change vs veh, BDP1 / RFU, LRRCC1 / Fold change vs veh, LRRCC1 / RFU, ARID1A / Fold change vs veh, ARID1A / RFU, ZNF146 / Fold change vs veh, ZNF146 / RFU, ZNF330 / Fold change vs veh, ZNF330 / RFU, GPN3 / Fold change vs veh, GPN3 / RFU, C9orf123 / Fold change vs veh, C9orf123 / RFU, N4BP2L2 / Fold change vs veh, N4BP2L2 / RFU, ARFIP1 / Fold change vs veh, ARFIP1 / RFU, FAM179B / Fold change vs veh, FAM179B / RFU, BCL10 / Fold change vs veh, BCL10 / RFU, UHRF1BP1L / Fold change vs veh, UHRF1BP1L / RFU, BET1 / Fold change vs veh, BET1 / RFU, CNOT2 / Fold change vs veh, CNOT2 / RFU, ZNF268 / Fold change vs veh, ZNF268 / Fold change vs veh, ZNF507 / RFU, DGCR2 / Fold change vs veh, DGCR2 / RFU, WDSUB1 / Fold change vs veh, WDSUB1 / Fold change vs veh, HSP90B1 /// MIR3652 / RFU, ADSS / Fold change vs veh, ADSS / RFU, GK / Fold change vs veh, GK / RFU, ZNF148 / Fold change vs veh, ZNF148 / RFU, TAF9 / Fold change vs veh, TAF9 / RFU, SLC1A5 / Fold change vs veh, SLC1A5 / RFU, SLMO2 / Fold change vs veh, SLMO2 / RFU, ABCC4 / Fold change vs veh, ABCC4 / RFU, LOC101060439 /// RAP1B / Fold change vs veh, LOC101060439 /// RAP1B / RFU, RFX7 / Fold change vs veh, RFX7 / RFU, GTPBP10 / Fold change vs veh, GTPBP10 / RFU, CNEP1R1 / Fold change vs veh, CNEP1R1 / RFU, BIVM-ERCC5 /// ERCC5 / Fold change vs veh, BIVM-ERCC5 /// ERCC5 / RFU, ILF3 / Fold change vs veh, ILF3 / RFU 11762660_at / Fold change /veh 11762660_at / RFU VCAN (11757783_s_at) / Fold change /veh VCAN (11757783_s_at) / RFU DDX43 (11728927_at) / Fold change /veh DDX43 (11728927_at) / RFU KRT8 (11758188_x_at) / Fold change /veh KRT8 (11758188_x_at) / RFU NKD1 (11759106_at) / Fold change /veh NKD1 (11759106_at) / RFU SRD5A1 (11742802_a_at) / Fold change /veh SRD5A1 (11742802_a_at) / RFU TPSAB1 /// TPSB2 (11721975_s_at) / Fold change /veh TPSAB1 /// TPSB2 (11721975_s_at) / RFU GSTM3 (11746129_a_at) / Fold change /veh GSTM3 (11746129_a_at) / RFU IL23R (11737362_x_at) / Fold change /veh IL23R (11737362_x_at) / RFU TMEM51 (11727254_a_at) / Fold change /veh TMEM51 (11727254_a_at) / RFU PIWIL2 (11732686_x_at) / Fold change /veh PIWIL2 (11732686_x_at) / RFU ORM1 (11744905_x_at) / Fold change /veh ORM1 (11744905_x_at) / RFU CCDC152 (11743942_at) / Fold change /veh CCDC152 (11743942_at) / RFU ECM1 (11717891_a_at) / Fold change /veh ECM1 (11717891_a_at) / RFU IL23R (11748794_a_at) / Fold change /veh IL23R (11748794_a_at) / RFU TNFAIP8L3 (11732012_x_at) / Fold change /veh TNFAIP8L3 (11732012_x_at) / RFU MBOAT4 (11741988_at) / Fold change /veh MBOAT4 (11741988_at) / RFU 11764193_at / Fold change /veh 11764193_at / RFU TMEM53 (11763286_at) / Fold change /veh TMEM53 (11763286_at) / RFU MAGEB2 (11727129_at) / Fold change /veh MAGEB2 (11727129_at) / RFU TMEM200A (11744735_a_at) / Fold change /veh TMEM200A (11744735_a_at) / RFU CCDC152 (11751479_a_at) / Fold change /veh CCDC152 (11751479_a_at) / RFU FAM211A (11726209_a_at) / Fold change /veh FAM211A (11726209_a_at) / RFU RGS16 (11746705_a_at) / Fold change /veh RGS16 (11746705_a_at) / RFU VCAN (11755009_s_at) / Fold change /veh VCAN (11755009_s_at) / RFU RHOB (11743442_s_at) / Fold change /veh RHOB (11743442_s_at) / RFU RGS16 (11720943_a_at) / Fold change /veh RGS16 (11720943_a_at) / RFU RGS16 (11720944_at) / Fold change /veh RGS16 (11720944_at) / RFU, VPS4B / Fold change vs veh, VPS4B / RFU, CREB1 / Fold change vs veh, CREB1 / RFU, DNAJC13 / Fold change vs veh, DNAJC13 / RFU, GNAQ / Fold change vs veh, GNAQ / RFU, CDK5R1 / Fold change vs veh, CDK5R1 / RFU, ZRANB3 / Fold change vs veh, ZRANB3 / RFU, CUL4A / Fold change vs veh, CUL4A / RFU, CCNY / Fold change vs veh, CCNY / RFU, UFL1 / Fold change vs veh, UFL1 / RFU, COG3 / Fold change vs veh, COG3 / RFU, DIAPH2 / Fold change vs veh, DIAPH2 / RFU, SKA2 / Fold change vs veh, SKA2 / RFU, AFF3 / Fold change vs veh, AFF3 / RFU, LMF1 / Fold change vs veh, LMF1 / RFU, IPO11 / Fold change vs veh, IPO11 / RFU, DFFB / Fold change vs veh, DFFB / RFU, FOXP1 / Fold change vs veh, FOXP1 / RFU, CARD8 / Fold change vs veh, CARD8 / RFU, STRN3 / Fold change vs veh, STRN3 / RFU, ADK / Fold change vs veh, ADK / RFU, RASSF2 / Fold change vs veh, RASSF2 / RFU, WIPF1 / Fold change vs veh, WIPF1 / RFU, LARP1B / Fold change vs veh, LARP1B / RFU, RASA1 / Fold change vs veh, RASA1 / RFU, RB1 / Fold change vs veh, RB1 / RFU, PPFIA1 / Fold change vs veh, PPFIA1 / RFU, MAT2A / Fold change vs veh, MAT2A / RFU, CCT5 / Fold change vs veh, CCT5 / RFU, WDR92 / Fold change vs veh, WDR92 / RFU, CUX1 / Fold change vs veh, CUX1 / RFU, TTC7A / Fold change vs veh, TTC7A / RFU, TMEM135 / Fold change vs veh, TMEM135 / RFU, DEPTOR / Fold change vs veh, DEPTOR / RFU, CPM / Fold change vs veh, CPM / RFU, DNAJB6 / Fold change vs veh, DNAJB6 / RFU, CACNA2D3 / Fold change vs veh, CACNA2D3 / RFU, DTX4 / Fold change vs veh, DTX4 / RFU, TFCP2 / Fold change vs veh, TFCP2 / RFU, GMCL1 /// GMCL1P1 / Fold change vs veh, GMCL1 /// GMCL1P1 / RFU, AEBP2 / Fold change vs veh, AEBP2 / RFU, SNHG1 /// SNORD22 /// SNORD25 /// SNORD26 /// SNORD27 /// SNORD28 /// SNORD29 /// SNORD31 / Fold change vs veh, SNHG1 /// SNORD22 /// SNORD25 /// SNORD26 /// SNORD27 /// SNORD28 /// SNORD29 /// SNORD31 / Fold change (Aza/veh), C12orf56 (ProbeSet 11735607_a_at) / Fold change (ACY-1035/veh), C12orf56 (ProbeSet 11735607_a_at) / Fold change (Aza/veh), FGFR1OP (ProbeSet 11751329_s_at) / Fold change (ACY-1035/veh), FGFR1OP (ProbeSet 11751329_s_at) / Fold change (Aza/veh), VPS36 (ProbeSet 11739960_a_at) / Fold change (ACY-1035/veh), VPS36 (ProbeSet 11739960_a_at) / RFU SYPL1 (11715823_x_at) / Fold change /veh SYPL1 (11715823_x_at) / RFU IGFBP7 (11715501_s_at) / Fold change /veh IGFBP7 (11715501_s_at) / RFU REEP3 (11722064_at) / Fold change /veh REEP3 (11722064_at) / RFU IGLL1 (11728026_x_at) / Fold change /veh IGLL1 (11728026_x_at): dose or concentration left out as unconfirmed
# Settings: ProbeSet 11717308_a_at; LIST B
structure (smiles),measurement,value
Nc1ccc(-c2cccs2)cc1NC(=O)c1ccc2c(c1)cc(C1CC1)n2CCN1CCOCC1 [ACY-1035],"RFU, WDR75",291.65 RFU
